Experimental data: patent US8748435B2, “Pyrazolo pyrimidine derivatives” (Novartis AG, priority 2011, dated 2014)
Counter-ions that a name gives are not always drawn.

Columns and labels:
rat GPR4 = rat GPR4 (Rattus norvegicus (Rat), UniProt Q4KLH9); experiment: Rat GPR4 cAMP assay; format: cell-based; details: read-out: r cAMP IC50
Method: (§1) HeLa cells stably expressing human GPR4 were established by transfecting the cells with a construct containing the human GPR4 coding sequence. The cells were grown in Dulbecco's Modified Eagle Medium (DMEM)/HAM's tissue culture medium F12 (HAM's F12) supplemented with 10% fetal calf serum (FCS), 100 u/ml penicillin, 100 μg/ml streptomycin and 400 μg/ml G418 and 10 mM Hepes pH 8.0. pH-induced formation of cAMP was determined using the homogeneous time resolved fluorescence (HTRF) technology as provided by CisBio Inc. The cells were seeded in 384-well plates and cultured for 24 hours at 37° C., 5% CO2 before performing the assay. Medium was removed and 10 μl buffer A (Hepes buffered saline (HBS), 10 mM Hepes, pH 8, 2 mM 3-Isobutyl-1-methylxanthin (IBMX)) was added. For compound testing, buffer A with 2× concentrated compounds was used. Cells were incubated for 15 min at room temperature. 10 μl buffer B (HBS, 30 mM Hepes, specific pH) was added to reach the appropriate final pH for stimulation (see below) and incubation was continued for 15 min at room temperature. […] HBS: 130 mM NaCl, 0.9 mM NaH2 PO4, 5.4 mM KCl, 0.8 mM MgSO4, CaCl2 1.8 mM, 25 mM glucose, 10-30 mM Hepes. Adjustment of HBS buffers:
(§2) Compounds were diluted from fresh stock solutions at 10 mM in DMSO to 2 mM and then used for serial dilutions in DMSO.
(§3) In a similar manner, assays for the mouse (m) and rat (r) GPR4 receptors have been established.

human GPR4 [1] = molecular target: T1, human GPR4 (Homo sapiens (Human), UniProt P46093); experiment: Cell-based assay for human GPR4 activity (pH-induced cAMP formation, HTRF, HeLa cells); details: HeLa cells stably expressing human GPR4, pH-induced cAMP
Method: b) Cell-Based Assay for Human GPR4 Activity
as §1, §2

Human H3 = Human H3 (Homo sapiens (Human), UniProt Q9Y5N1); experiment: Human H3 binding assay (SPA, [3H]-R-alpha-Methylhistamine); details: 3 nM [3H]-R-alpha-Methylhistamine
Method: c) Human H3 Binding Assay
The Scintillation Proximity Binding Assay (SPA) assay was performed in a final volume of 50 μL per well in a 384-well polystyrene plate.
The final concentration of the radioligand was 3 nM. • 20 μL of a beads (PVT-WGA type A) and membranes mixed suspension in assay buffer, in order to get a final concentration of 10 μg/well of membranes and 200 μg/well of beads. As an example, 1471 μL membranes (Conc.: 5.1 mg/mL) and 1500 μL of bead suspension (Conc.: 100 mg/mL) are diluted to a final volume of 15 mL of assay buffer.
The plates were sealed and shaken at room temperature, then allowed to stand at room temperature for at least 1 hour. The plates were counted using a Perkin Elmer TopCount reader, each well being counted for 1 minute.

mouse GPR4 = mouse GPR4 (Mus musculus (Mouse), UniProt Q8BUD0); experiment: Mouse GPR4 cAMP assay; format: cell-based
Method: as §1, §2, §3

human GPR4 [2] = molecular target: T1, human GPR4; experiment: Human GPR4 binding assay with additional human serum albumin (4% HSA); details: binding assay with 4% HSA
Method: (§4) Cells were grown in T175 flasks to a density of about 1×10^6 cells/mL in growth medium. The cells were harvested by centrifugation (3000 rpm for 30 minutes at 4° C.) and the pellet resuspended in ice cold buffer A (20 mM HEPES pH 7.8, 10 mM EDTA, 100 mM NaCl, 1 tab/40 mL protease inhibitor complete). […] The homogenate was centrifuged at 18000 rpm for 50 min at 4° C. and the membrane protein pellet resuspended in cold buffer A using the Polytron (2×20 seconds). The protein concentration is determined using the Bio Rad Protein Assay and human IgG as standard. The volume of the membrane protein suspension is adjusted to a final concentration of about 2 mg protein/mL. The suspension is then once again homogenized (Polytron) on ice at 25000 rpm for 20 seconds before being aliquoted and stored at −80° C.
(§5) Radio Ligand Binding Assay: Serial dilutions of compounds (stock in 10 mM DMSO) are prepared by first diluting the compounds in DMSO followed by a 1:50 dilution into assay buffer (10 mM HEPES, pH 8.0, 100 mM NaCl, 5 mM MgCl2, 1 mM CaCl2, 0.5% fatty acid-free BSA, 0.05% Tween-20). […] The desired amount of membranes (20 μg/well) is diluted with assay buffer. […] 100 μL of the membrane-suspension is added and the plate stirred for 60 minutes. […] The filter plate is washed 5 times with ice-cold wash buffer, dried and sealed at the bottom. Then 20 μL of Microscint 40 is added into each well and the top of the plate is sealed. Finally the plate is counted for 2 min/well in a TopCount NXT instrument (Packard Instruments). The data are analyzed using the GraphPad Prism™ software.
In a similar manner, a binding assay with additional human serum albumin (4% HSA) has been established.

human GPR4 [3] = molecular target: T1, human GPR4; experiment: Human GPR4 binding assay ([3H]4 radioligand, membranes of 300.19 cells expressing human GPR4); details: radioligand [3H]4 (example 39), membranes of 300.19 cells expressing human GPR4
Method: a) Human GPR4 Binding Assay
as §4, §5

CFA-induced hyperalgesia = experiment: Established rat hyperalgesia model (CFA); format: in vivo; details: gavage
Method: f) Established Rat Hyperalgesia Model
Naïve withdrawal thresholds of both hind paws were determined by using an increasing pressure stimulus placed onto the dorsal surface of each paw using an analgesymeter. Delayed inflammatory pain was then induced by intra-plantar injection of 25 μl of complete Freund's adjuvant (CFA) into one hindpaw with the contralateral paw acting as the control. […] One hour later, paw withdrawal thresholds were re-measured on both the ipsilateral (CFA-injected) and contralateral (uninjected) paw; measurements were repeated at 3 hrs and 6 hrs post dosing. The reversal of hyperalgesia was calculated using the following formula: Reversal (%)=100×(postdose ipsilateral threshold−predose ipsilateral threshold) (naïve ipsilateral threshold−predose ipsilateral threshold).

T1 sequence (P46093 whole entry): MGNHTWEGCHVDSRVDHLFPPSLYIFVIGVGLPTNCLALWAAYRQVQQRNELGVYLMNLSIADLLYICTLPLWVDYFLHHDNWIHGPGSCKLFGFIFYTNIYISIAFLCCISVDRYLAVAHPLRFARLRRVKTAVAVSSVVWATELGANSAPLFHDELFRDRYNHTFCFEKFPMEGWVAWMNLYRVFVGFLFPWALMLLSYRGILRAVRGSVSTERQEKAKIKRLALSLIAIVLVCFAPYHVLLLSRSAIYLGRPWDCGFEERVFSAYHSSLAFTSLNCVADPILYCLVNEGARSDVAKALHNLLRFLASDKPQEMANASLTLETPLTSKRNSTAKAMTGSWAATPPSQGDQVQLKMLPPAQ
Sequence of rat GPR4 (Q4KLH9 whole entry): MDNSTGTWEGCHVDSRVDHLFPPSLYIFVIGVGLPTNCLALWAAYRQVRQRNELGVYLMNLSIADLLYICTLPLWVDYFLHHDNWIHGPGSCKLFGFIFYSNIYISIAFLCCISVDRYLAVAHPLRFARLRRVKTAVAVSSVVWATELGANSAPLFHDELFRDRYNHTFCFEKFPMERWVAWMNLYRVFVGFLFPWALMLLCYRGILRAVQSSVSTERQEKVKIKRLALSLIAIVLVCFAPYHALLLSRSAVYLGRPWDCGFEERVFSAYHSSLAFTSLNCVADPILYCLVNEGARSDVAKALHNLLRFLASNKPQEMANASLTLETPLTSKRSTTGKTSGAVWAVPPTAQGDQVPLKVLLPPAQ
Sequence of Human H3 (Q9Y5N1 whole entry): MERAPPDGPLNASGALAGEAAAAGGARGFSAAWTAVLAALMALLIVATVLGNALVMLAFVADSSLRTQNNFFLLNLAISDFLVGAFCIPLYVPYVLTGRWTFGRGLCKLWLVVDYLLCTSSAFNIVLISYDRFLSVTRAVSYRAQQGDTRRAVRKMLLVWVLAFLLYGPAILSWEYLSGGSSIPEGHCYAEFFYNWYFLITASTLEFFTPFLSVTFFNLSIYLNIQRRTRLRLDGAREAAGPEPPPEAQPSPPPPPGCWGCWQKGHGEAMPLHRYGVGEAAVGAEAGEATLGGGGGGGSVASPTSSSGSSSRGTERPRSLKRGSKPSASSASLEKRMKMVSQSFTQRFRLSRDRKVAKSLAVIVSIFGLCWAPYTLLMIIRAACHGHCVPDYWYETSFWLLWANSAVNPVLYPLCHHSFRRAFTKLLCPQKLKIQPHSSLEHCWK
Sequence of mouse GPR4 (Q8BUD0 whole entry): as the sequence (Q4KLH9 whole entry) above, with W8G, R51H, T339S counted along it

Molecule `CCc1nn2c(C)cc(C)nc2c1Cc1ccc(OCCN2CCN[C@@H](COC)C2)cc1` [Example 27, 2-Ethyl-3-{4-[2-((R)-3-methoxymethyl-piperazin-1-yl)-ethoxy]-benzyl}-5,7-dimethyl-pyrazolo[1,5-a]pyrimidine] has an IC50 (rat GPR4) of 2630 nM, an IC50 (human GPR4 [1]) of 64 nM and an IC50 (Human H3) greater than 30000 nM. It also gave an IC50 (mouse GPR4) of 507 nM, an IC50 (human GPR4 [2]) of 81 nM and an IC50 (human GPR4 [3]) of 59 nM.
`CCc1nn2c(C)cc(C)nc2c1Cc1ccc(/C=C/CC2(O)CCNCC2)cc1` [Example 3, 4-{(E)-3-[4-(2-Ethyl-5,7-dimethyl-pyrazolo[1,5-a]pyrimidin-3-ylmethyl)-phenyl]-allyl}-piperidin-4-ol] gave an IC50 (rat GPR4) of 338 nM, an IC50 (human GPR4 [1]) of 31 nM and an IC50 (Human H3) greater than 30000 nM. For the same molecule, the IC50 (mouse GPR4) was 124 nM, the IC50 (human GPR4 [2]) was 49 nM and the IC50 (human GPR4 [3]) was 44 nM.
Work on `CCc1nn2c(C)cc(C)nc2c1Cc1ccc(OCC2CCNCC2)cc1` [Example 21, 2-Ethyl-5,7-dimethyl-3-[4-(piperidin-4-ylmethoxy)-benzyl]-pyrazolo[1,5-a]pyrimidine hydrochloride] yielded an IC50 (rat GPR4) of 489 nM, an IC50 (human GPR4 [1]) of 12 nM and an IC50 (Human H3) of 25000 nM. For the same molecule, the IC50 (mouse GPR4) was 96 nM.
In the case of `O=C(O)Cc1ccccc1Nc1c(Cl)cccc1Cl` [diclofenac, reference compound], the “% reversal of hyperalgesia” value (CFA-induced hyperalgesia; 30 mg/kg, 1 h) is reported as 58%, the “% reversal of hyperalgesia” value (CFA-induced hyperalgesia; 30 mg/kg, 3 h) is reported as 60% and the “% reversal of hyperalgesia” value (CFA-induced hyperalgesia; 30 mg/kg, 6 h) is reported as 30%.
`CCc1nn2c(C)cc(C)nc2c1Cc1ccc(-c2nnc(C3CCN(C(=O)CNC)CC3)o2)cc1` [Example 37, 1-(4-{5-[4-(2-Ethyl-5,7-dimethyl-pyrazolo[1,5-a]pyrimidin-3-ylmethyl)-phenyl]-[1,3,4]oxadiazol-2-yl}-piperidin-1-yl)-2-methylamino-ethanone] gave an IC50 (human GPR4 [1]) of 40 nM.
`CCc1nn2c(C)cc(C)nc2c1Cc1ccc(/C=C/CN2CCC(c3nnnn3C)CC2)cc1` [Example 12, 2-Ethyl-5,7-dimethyl-3-(4-{(E)-3-[4-(1-methyl-1H-tetrazol-5-yl)-piperidin-1-yl]-propenyl}-benzyl)-pyrazolo[1,5-a]pyrimidine hydrochloride] showed an IC50 (rat GPR4) of 181 nM, an IC50 (human GPR4 [1]) of 27 nM and an IC50 (Human H3) greater than 30000 nM. It also gave an IC50 (mouse GPR4) of 233 nM and an IC50 (human GPR4 [3]) of 33 nM.
With `CCc1nn2c(C)cc(C)nc2c1Cc1ccc(-n2cc(CN3CCC(N)CC3)cn2)cc1` [Example 30, 1-{1-[4-(2-Ethyl-5,7-dimethyl-pyrazolo[1,5-a]pyrimidin-3-ylmethyl)-phenyl]-1H-pyrazol-4-ylmethyl}-piperidin-4-ylamine] the IC50 (rat GPR4) was 497 nM, the IC50 (human GPR4 [1]) was 29 nM and the IC50 (Human H3) was greater than 30000 nM. It also gave an IC50 (mouse GPR4) of 384 nM and an IC50 (human GPR4 [3]) of 26 nM.
In the case of `CCc1nc2c(C)cc(C)nc2n1Cc1ccc(/C=C/CN2CCN(C(C)C)CC2)cc1` [Example 40, 2-Ethyl-3-{4-[(E)-3-(4-isopropyl-piperazin-1-yl)-propenyl]-benzyl}-5,7-dimethyl-3H-imidazo[4,5-b]pyridine, reference compound], the “% reversal of hyperalgesia” value (CFA-induced hyperalgesia; 3 mg/kg, 1 h) is reported as 23%, the “% reversal of hyperalgesia” value (CFA-induced hyperalgesia; 3 mg/kg, 3 h) is reported as 11% and the “% reversal of hyperalgesia” value (CFA-induced hyperalgesia; 3 mg/kg, 6 h) is reported as 0%. For the same molecule, the “% reversal of hyperalgesia” value (CFA-induced hyperalgesia; 10 mg/kg, 1 h) was 48%, the “% reversal of hyperalgesia” value (CFA-induced hyperalgesia; 10 mg/kg, 3 h) was 40% and the “% reversal of hyperalgesia” value (CFA-induced hyperalgesia; 10 mg/kg, 6 h) was 0%. For the same molecule, the “% reversal of hyperalgesia” value (CFA-induced hyperalgesia; 30 mg/kg, 1 h) was 55%, the “% reversal of hyperalgesia” value (CFA-induced hyperalgesia; 30 mg/kg, 3 h) was 45% and the “% reversal of hyperalgesia” value (CFA-induced hyperalgesia; 30 mg/kg, 6 h) was 8%.
`CCc1nn2c(C)cc(C)nc2c1Cc1ccc(/C=C/CC2(O)CCN(C[C@@H](O)CO)CC2)cc1` [Example 6, (R)-3-(4-{(E)-3-[4-(2-Ethyl-5,7-dimethyl-pyrazolo[1,5-a]pyrimidin-3-ylmethyl)-phenyl]-allyl}-4-hydroxy-piperidin-1-yl)-propane-1,2-diol] gave an IC50 (rat GPR4) of 491 nM, an IC50 (human GPR4 [1]) of 19 nM and an IC50 (mouse GPR4) of 128 nM. For the same molecule, the IC50 (human GPR4 [3]) was 24 nM.
For `CCc1nn2c(C)cc(C)nc2c1Cc1ccc(/C=C/CN2CCN(C(=O)CN)CC2)cc1` [Example 11, 2-Amino-1-(4-{(E)-3-[4-(2-ethyl-5,7-dimethyl-pyrazolo[1,5-a]pyrimidin-3-ylmethyl)-phenyl]-allyl}-piperazin-1-yl)-ethanone dihydrochloride], the IC50 (rat GPR4) was 2790 nM, the IC50 (human GPR4 [1]) was 46 nM and the IC50 (Human H3) was greater than 30000 nM. It also gave an IC50 (mouse GPR4) of 499 nM and an IC50 (human GPR4 [3]) of 38 nM.
`CCc1nn2c(C)cc(C)nc2c1Cc1ccc(OC[C@H]2CC[C@@H](NC(=O)[C@H]3NCC[C@H]3O)CC2)cc1` [Example 24, (2S,3R)-3-Hydroxy-pyrrolidine-2-carboxylic acid {4-[4-(2-ethyl-5,7-dimethyl-pyrazolo[1,5-a]pyrimidin-3-ylmethyl)-phenoxymethyl]-cyclohexyl}-amide] was tested, and the IC50 (rat GPR4) was 792 nM, the IC50 (human GPR4 [1]) was 70 nM and the IC50 (Human H3) was greater than 30000 nM. It also gave an IC50 (mouse GPR4) of 365 nM and an IC50 (human GPR4 [2]) of 63 nM.
`CCc1nn2c(C)cc(C)nc2c1Cc1ccc(-n2cc(CN3CCN[C@@H](CO)C3)cn2)cc1` [Example 32, ((R)-4-{1-[4-(2-Ethyl-5,7-dimethyl-pyrazolo[1,5-a]pyrimidin-3-ylmethyl)-phenyl]-1H-pyrazol-4-ylmethyl}-piperazin-2-yl)-methanol] gave an IC50 (rat GPR4) of 1330 nM, an IC50 (human GPR4 [1]) of 61 nM and an IC50 (Human H3) greater than 30000 nM. For the same molecule, the IC50 (mouse GPR4) was 255 nM.
With `CCc1nn2c(C)cc(C)nc2c1Cc1ccc(-n2cc(CN3CCNCC3)nn2)cc1` [Example 33, 2-Ethyl-5,7-dimethyl-3-[4-(4-piperazin-1-ylmethyl-[1,2,3]triazol-1-yl)-benzyl]-pyrazolo[1,5-a]pyrimidine] the IC50 (rat GPR4) was 616 nM, the IC50 (human GPR4 [1]) was 31 nM and the IC50 (Human H3) was greater than 10000 nM. The IC50 (mouse GPR4) was 872 nM and the IC50 (human GPR4 [3]) was 38 nM.
Work on `CCc1nn2c(C)cc(C)nc2c1Cc1ccc(OCC2CCN(C(=O)[C@H]3NCC[C@H]3O)CC2)cc1` [Example 22, {4-[4-(2-Ethyl-5,7-dimethyl-pyrazolo[1,5-a]pyrimidin-3-ylmethyl)-phenoxymethyl]-piperidin-1-yl}-((2S,3R)-3-hydroxy-pyrrolidin-2-yl)-methanone] yielded an IC50 (rat GPR4) of 202 nM, an IC50 (Human H3) greater than 30000 nM and an IC50 (mouse GPR4) of 90 nM. For the same molecule, the IC50 (human GPR4 [2]) was 12 nM and the IC50 (human GPR4 [3]) was 19 nM.
`CCc1nn2c(C)cc(C)nc2c1Cc1ccc(C(=O)NCC2CCNCC2)cc1` [Example 20, 4-(2-Ethyl-5,7-dimethyl-pyrazolo[1,5-a]pyrimidin-3-ylmethyl)-N-piperidin-4-ylmethyl-benzamide] showed an IC50 (rat GPR4) of 1500 nM, an IC50 (human GPR4 [1]) of 79 nM and an IC50 (Human H3) greater than 30000 nM. For the same molecule, the IC50 (mouse GPR4) was 366 nM.
